Legend:
[1] = test system: Staphylococcus aureus ATCC 29213; settings: S.aureus, cited from earlier work
[2] = test system: Escherichia coli ATCC 25922; settings: E.coli, cited from earlier work
[3] = test system: E. faecium; assay: Qualitative glucose consumption test, directly from positive BC-bottles (Example 2, Table 7); assay type: cell-based; settings: E. faecium from positive BC-bottle, antibiotic 256 μg/mL
Protocol: With slightly lower microbe concentrations e.g. directly from positive BC-bottles (^˜10^9 CFU/ml) the results are shown at least within 2 hours, where E. coli ATCC 25922 is classified as susceptible and E. faecium is non-susceptible.

[4] = test system: E. faecium; assay: Qualitative glucose consumption test, bacteria from plated cultures (Example 2, Table 6); assay type: cell-based; settings: E. faecium from plated culture, antibiotic 256 μg/mL
Protocol: (§1) If the susceptibility score is a qualitative susceptibility score classifying the microorganism as “susceptible”, or “non-susceptible” to an antibiotic agent the answer could be given in as little as 1 hour. Bacteria from plated cultures were suspended in cation adjusted Mueller-Hinton broth (SVA, Uppsala, Sweden) supplemented with glucose. Consequently, the concentration of microorgansims was typically two orders of magnitude higher as compared to Example 1. […] The tested microorganisms was one strain of E. faecium, two strains of E. coli and one S. aureus.

[5] = test system: E. coli 17; assay: as above; assay type: cell-based; settings: E. coli 17 from plated culture, antibiotic 256 μg/mL
Protocol: as §1

[6] = test system: E. coli ATCC 25922; assay: as above; assay type: cell-based; settings: E. coli ATCC 25922 from plated culture, antibiotic 256 μg/mL
Protocol: as §1

[7] = test system: Enterococcus faecalis ATCC 29212; settings: E.faecalis, cited from earlier work
[8] = test system: E. coli ATCC 25922; assay: Qualitative glucose consumption test, directly from positive BC-bottles (Example 2, Table 7); assay type: cell-based; settings: E. coli ATCC 25922 from positive BC-bottle, antibiotic 256 μg/mL
[9] = test system: S. aureus; assay: Qualitative glucose consumption test, bacteria from plated cultures (Example 2, Table 6); assay type: cell-based; settings: S. aureus from plated culture, antibiotic 256 μg/mL
Protocol: If the susceptibility score is a qualitative susceptibility score classifying the microorganism as “susceptible”, or “non-susceptible” to an antibiotic agent the answer could be given in as little as 1 hour.
Bacteria from plated cultures were suspended in cation adjusted Mueller-Hinton broth (SVA, Uppsala, Sweden) supplemented with glucose. Consequently, the concentration of microorgansims was typically two orders of magnitude higher as compared to Example 1. […] The tested microorganisms was one strain of E. faecium, two strains of E. coli and one S. aureus.

[10] = test system: Escherichia coli (ATCC 25922); assay: Glucose consumption susceptibility test, blood culture diluted in MHB with glucose (Example 1); assay type: cell-based; design: glucose concentration, t = 0 / glucose concentration, t = 60 / glucose concentration, t = 120 / glucose concentration, t = 180 / dC/dT (rate of change in glucose concentration) / glucose concentration, t = 240: unit not given here; settings: for F = the rate of change in glucose concentration in relation to the reference / dC/dT (rate of change in glucose concentration) / glucose concentration, t = 0 / glucose concentration, t = 60 / glucose concentration, t = 120 / glucose concentration, t = 180 / glucose concentration, t = 240: E. coli; for glucose concentration, t = 0: 0 minutes; for glucose concentration, t = 60: 60 minutes; for glucose concentration, t = 120: 120 minutes; for glucose concentration, t = 180: 180 minutes; for glucose concentration, t = 240: 240 minutes
Protocol: Strains of Escherichia coli (ATCC 25922), Enterococcus faecalis (ATCC 29212) and Staphylococcus aureus (ATCC 29213) were inoculated in blood culture bottles (SVA, Uppsala, Sweden) and cultivated according to the manufacturer's instructions until positive.
Medium from each blood culture bottle was diluted 1:100 with cation adjusted Mueller-Hinton broth (SVA, Uppsala, Sweden) supplemented with glucose to a concentration of 1.0 mg/mL.
Glucose concentrations were measured at 0, 60, 120, 180, and 240 minutes using a WaveSense Jazz glucometer (AgaMatrix, Inc., Salem, N.H., USA) with accompanying test strips.
Susceptibility scores corresponding to MIC values were calculated as described above. A 80% threshold was applied, i.e. the lowest concentration of antibiotic that entailed a rate of change in glucose concentration that was equal to or less than 80% of the reference was selected as the Minimal Inhibitory Concentration. The rate of change was calculated between the measurements at 60 and 180 minutes.

[11] = range obtained by EUCAST from ISO 20776-1: 2006
[12] = reference value, Mueller-Hinton agar, incubation 18±2 h, N/A = not susceptible

gentamicin
MIC, EUCAST, range in parentheses [1, 11]: (0.125-1) ug/mL
MIC, EUCAST ([1]; reference value, Mueller-Hinton agar, incubation 18±2 h): 0.25 to 0.5 µg/mL
MIC, EUCAST, range in parentheses [2, 11]: (0.25-1) ug/mL
MIC, EUCAST [2, 12]: 0.5 µg/mL
glucose concentration, t = 0 ([3]; t = 0): 144
glucose concentration, t = 45 ([3]; t = 45): 105
glucose concentration, t = 60 ([3]; t = 60): 77
glucose concentration, t = 75 ([3]; t = 75): 47
qualitative susceptibility score ([3]; within 2 hours): non-susceptible
qualitative susceptibility score [4]: non-susceptible
glucose concentration, t = 0 ([4]; t = 0): 79
glucose concentration, t = 15 ([4]; t = 15): 47
qualitative susceptibility score [5]: susceptible
glucose concentration, t = 15 ([5]; t = 15): 131
glucose concentration, t = 30 ([5]; t = 30): 126
glucose concentration, t = 45 ([5]; t = 45): 123
qualitative susceptibility score [6]: susceptible
glucose concentration, t = 15 ([6]; t = 15): 156
glucose concentration, t = 30 ([6]; t = 30): 155
glucose concentration, t = 45 ([6]; t = 45): 136
MIC, EUCAST, range in parentheses [7, 11]: (4-16) ug/mL
MIC, EUCAST [7, 12]: 8 µg/mL
glucose concentration, t = 0 ([8]; t = 0): 145
glucose concentration, t = 45 ([8]; t = 45): 155
glucose concentration, t = 60 ([8]; t = 60): 151
glucose concentration, t = 90 ([8]; t = 90): 140
glucose concentration, t = 105 ([8]; t = 105): 135
qualitative susceptibility score ([8]; within 2 hours): susceptible
qualitative susceptibility score [9]: susceptible
glucose concentration, t = 15 ([9]; t = 15): 137
glucose concentration, t = 30 ([9]; t = 30): 139
glucose concentration, t = 45 ([9]; t = 45): 131
F = the rate of change in glucose concentration in relation to the reference ([10]; antibiotic 0.25 μg/mL): 139%
dC/dT (rate of change in glucose concentration) ([10]; antibiotic 0.25 μg/mL): 86
glucose concentration, t = 0 ([10]; antibiotic 0.25 μg/mL): 149
glucose concentration, t = 60 ([10]; antibiotic 0.25 μg/mL): 152
glucose concentration, t = 120 ([10]; antibiotic 0.25 μg/mL): 144
glucose concentration, t = 180 ([10]; antibiotic 0.25 μg/mL): 58
F = the rate of change in glucose concentration in relation to the reference ([10]; antibiotic 0.5 μg/mL): 121%
dC/dT (rate of change in glucose concentration) ([10]; antibiotic 0.5 μg/mL): 75
glucose concentration, t = 0 ([10]; antibiotic 0.5 μg/mL): 144
glucose concentration, t = 60 ([10]; antibiotic 0.5 μg/mL): 147
glucose concentration, t = 120 ([10]; antibiotic 0.5 μg/mL): 147
glucose concentration, t = 180 ([10]; antibiotic 0.5 μg/mL): 72
F = the rate of change in glucose concentration in relation to the reference ([10]; antibiotic 1 μg/mL): 77%
dC/dT (rate of change in glucose concentration) ([10]; antibiotic 1 μg/mL): 48
glucose concentration, t = 0 ([10]; antibiotic 1 μg/mL): 144
glucose concentration, t = 60 ([10]; antibiotic 1 μg/mL): 155
glucose concentration, t = 120 ([10]; antibiotic 1 μg/mL): 148
glucose concentration, t = 180 ([10]; antibiotic 1 μg/mL): 111
glucose concentration, t = 240 ([10]; antibiotic 1 μg/mL): 53
F = the rate of change in glucose concentration in relation to the reference ([10]; antibiotic 2 μg/mL): 9%
dC/dT (rate of change in glucose concentration) ([10]; antibiotic 2 μg/mL): 6
glucose concentration, t = 60 ([10]; antibiotic 2 μg/mL): 161
glucose concentration, t = 120 ([10]; antibiotic 2 μg/mL): 151
glucose concentration, t = 180 ([10]; antibiotic 2 μg/mL): 143
glucose concentration, t = 240 ([10]; antibiotic 2 μg/mL): 140
F = the rate of change in glucose concentration in relation to the reference ([10]; antibiotic 4 μg/mL): 7%
dC/dT (rate of change in glucose concentration) ([10]; antibiotic 4 μg/mL): 5
glucose concentration, t = 0 ([10]; antibiotic 4 μg/mL): 147
glucose concentration, t = 60 ([10]; antibiotic 4 μg/mL): 163
glucose concentration, t = 120 ([10]; antibiotic 4 μg/mL): 157
glucose concentration, t = 180 ([10]; antibiotic 4 μg/mL): 148
glucose concentration, t = 240 ([10]; antibiotic 4 μg/mL): 148
F = the rate of change in glucose concentration in relation to the reference ([10]; antibiotic 8 μg/mL): 7%
dC/dT (rate of change in glucose concentration) ([10]; antibiotic 8 μg/mL): 5
glucose concentration, t = 0 ([10]; antibiotic 8 μg/mL): 144
glucose concentration, t = 60 ([10]; antibiotic 8 μg/mL): 156
glucose concentration, t = 120 ([10]; antibiotic 8 μg/mL): 153
glucose concentration, t = 180 ([10]; antibiotic 8 μg/mL): 150
glucose concentration, t = 240 ([10]; antibiotic 8 μg/mL): 144
F = the rate of change in glucose concentration in relation to the reference ([10]; antibiotic 16 μg/mL): 1%
dC/dT (rate of change in glucose concentration) ([10]; antibiotic 16 μg/mL): 1
glucose concentration, t = 0 ([10]; antibiotic 16 μg/mL): 143
glucose concentration, t = 60 ([10]; antibiotic 16 μg/mL): 155
glucose concentration, t = 120 ([10]; antibiotic 16 μg/mL): 152
glucose concentration, t = 180 ([10]; antibiotic 16 μg/mL): 149
glucose concentration, t = 240 ([10]; antibiotic 16 μg/mL): 153
F = the rate of change in glucose concentration in relation to the reference ([10]; antibiotic 32 μg/mL): 6%
dC/dT (rate of change in glucose concentration) ([10]; antibiotic 32 μg/mL): 4
glucose concentration, t = 0 ([10]; antibiotic 32 μg/mL): 148
glucose concentration, t = 60 ([10]; antibiotic 32 μg/mL): 158
glucose concentration, t = 120 ([10]; antibiotic 32 μg/mL): 155
glucose concentration, t = 180 ([10]; antibiotic 32 μg/mL): 150
glucose concentration, t = 240 ([10]; antibiotic 32 μg/mL): 147
MIC, Measured ([10]; E.coli, 80% threshold of reference rate of change, 60 to 180 minutes, N/A = not susceptible, no MIC value can be calculated): 1 µg/mL
